One compound from patent US9388126B2, “Sigma receptor ligands and methods of modulating cellular protein homeostasis using same” (Drexel University, priority 2012, dated 2016) can be followed below.

Where “and” joins values, the source holds several entries; their conditions need not be identical. Equal entries are not always repeated.

In one experiment the test system is PC3 and DU145 PCa cells. Briefly: UPR induction in prostate cancer cell lines. It is filed as cell-based, human. To be noted: preliminary experiments. An excerpt: FIG. 15 is an image of an immunoblot illustrating induction of UPR in a prostate cancer cell line. […] P-IRE1α indicates phosphorylated IRE1α. Similar results were obtained with DU145 prostate cancer cells.
This might be due to an accumulation of ubiquitylated proteins or due to an increase in ubiquitin ligase activity. Progression of the ER stress response could be monitored by a set of markers, many of which have been directly linked to the UPR. The most extensively investigated sensors that initiate the UPR are IRE1α, PERK, and ATF6, which transduce signals to a cascade of effectors. Many of these UPR 4 effectors function as transcription factors that induce the synthesis of ER chaperones, such as GRP78/BiP and GRP94, involved in maintaining protein homeostasis.

In the next experiment the target is T1, Sigma1 in SKBR3 cells (Homo sapiens, UniProt Q99720).
T1 construct: endogenous in cells; host or cells: SKBR3
T1 sequence (Q99720 whole entry): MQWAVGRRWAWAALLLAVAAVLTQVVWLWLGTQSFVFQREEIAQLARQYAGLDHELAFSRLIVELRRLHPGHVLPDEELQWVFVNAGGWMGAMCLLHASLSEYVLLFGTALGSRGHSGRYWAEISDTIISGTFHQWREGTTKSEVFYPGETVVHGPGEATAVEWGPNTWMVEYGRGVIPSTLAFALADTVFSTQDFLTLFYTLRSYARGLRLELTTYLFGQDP
Briefly: Sigma1 protein level and sub-cellular fractionation. It is filed as cell-based. The conditions noted are these: 12-16 hours. Here is the method: FIG. 66, comprising FIGS. 66A-66H, illustrates the non-limiting mechanism(s) of Sigma1 ligand actions, wherein Sigma ligand treatment induces differential localization of Sigma1. […] FIG. 66B is an immunoblot of the fractions collected from biochemical sub-cellular fractionation assay. […] FIG. 66C is a graph illustrating quantification of bands in FIG. 66B. FIG. 66D is a set of images of confocal immunofluorescence microscopy of Sigma1 in SKBR3 cells treated for 12-16 hours with IPAG. Green signal indicated Sigma1, blue signal (DAPI) indicated nucleus. FIG. 66E is a set of graphs illustrating quantification of fractions collected from biochemical sub-cellular fractionation assay performed using SKBR3 cells. […] Functional and physical association with LC3II and functional interaction with VCP are reported in the literature. FIG. 66H is a set of confocal microscopy images, with evidence of co-localization of poly-ubiquitylated proteins and p62SQSTM. […] The ubiquitin-p62SQSTM co-localization and distribution pattern changed subsequent to IPAG treatment. […] Sigma1 functional related and physical associated proteins were redistributed to the other parts of the cell, especially into autophagosome.

The subject of experiment [1] is T-47D breast adenocarcinoma cells. Briefly: Cell size by flow cytometry (mean FSC-H, G1 phase). In kind it is cell-based, human. The conditions noted are these: 10 μM. Here is the method: FIG. 31A is a differential interference contrast (DIC) image of MDA-MB-468 breast adenocarcinoma cells treated for ˜20 hours with DMSO (drug vehicle control), 10 μM IPAG (antagonist) or 10 μM PRE084 (agonist). A twenty-micron bar is shown in each image. Data are presented as mean±SEM. FIG. 31B is a graph illustrating the finding that IPAG diminished the mean cell size (FSC-H) of MDA-MB-468 breast tumor cells in a time-responsive manner. The mean FSC-H of 370±5 at to decreased to 323±4 after 24 hours of IPAG treatment and to 267±2 after 48 hours of treatment. Two-tailed t-tests were performed to determine statistical significance. For IPAG treatment compared to control (DMSO) and Sigma agonists (SKF and PRE084), P=0.0002 at d1 and P=0.00013 at d2. Data were generated from three to five independent determinations for each time-point. Flow cytometry was used to measure mean cell size (mean FSC-H) of T-47D breast adenocarcinoma cells. FIG. 31C is a bar graph illustrating T-47D cells treated for 24 hours with 10 μM indicated Sigma ligand. IPAG and BD 1047 (Sigma1 antagonists) diminished cell size from a mean FSC-H of 412±5 for control (DMSO) cells versus 341±7 and 381±8 for IPAG and BD1047 treated cells, respectively. […] Data represent 5 independent determinations (*P<0.05, ***P<0.001). FIG. 31D is a bar graph illustrating how IPAG (antagonist) decreases cell size in a dose responsive manner. T-47D were treated for 24 h with 1 and 10 μM IPAG, and mean FSC-H was measured. FIG. 31E is a graph illustrating that T47D cell size decreases over time. T-47D cells were treated for a total of 48 hours with 10 μM of the indicated Sigma ligands. […] Neither Sigma1 agonist, (+)-SKF10047 and PRE084, altered cell size. […] Two-tailed t-tests were performed to determine statistical significance. For IPAG treatment compared to control (DMSO) and Sigma1 agonists (SKF and PRE084), P=0.0002 at d1 and P<0.0001 at d2. For FIGS. 31B-31E, the mean FSC-H was determined for each cell cycle population (i.e., G1, S, G2/M), and data is shown for G1 phase cells. S and G2/M phase cells responded similarly (data not shown).
For orientation: Flow cytometry measures light scatter and fluorescence of single cells or particles in a stream.

Experiment [2] deals with MDA-MB-468 and MDA-MB-231 breast adenocarcinoma cells. Briefly: Poly-ubiquitylated protein immunoblot, breast adenocarcinoma cells. It is filed as cell-based, human. The conditions noted are these: 10 μM, up to 24 hours, MDA-MB-468. The method, then: FIG. 34A is an image of an immunoblot of MDA-MB-468 breast adenocarcinoma cells treated with 10 μM Sigma1 antagonist (IPAG) for the indicated times, up to 24 hours. Total cell lysates were resolved by SDS-PAGE and immunoblotted with a poly-ubiquitin antibody P4D1. FIG. 34B is an image of an immunoblot of HepG2 hepatocellular carcinoma cells treated for 20 hours with 10 μM of indicated Sigma1 ligands.
FIG. 59, comprising FIGS. 59A-59B, illustrates the finding that the novel Sigma1 ligand JMS-51-58 modulated the ubiquitin proteasome system. FIG. 59A is an image of an immunoblot evaluating the levels of poly-ubiquitylated proteins of MDA-MB-468 breast adenocarcinoma treated for 16 hours with 10 μM of JMS-51-58. FIG. 59B is an image of an immunoblot evaluating the levels of poly-ubiquitylated proteins of MDA-MB-231 breast adenocarcinoma cells treated for 16 hours with 10 μM of JMS-51-58. The levels of poly-ubiquitylated proteins were evaluated by immunoblot.

Consider `N=C(Nc1ccc(I)cc1)NC1C2CC3CC(C2)CC1C3` (stereo not drawn) [IPAG, 1-(4-iodophenyl)-3-(2-adamantyl)guanidine], for which, in the experiment with PC3 and DU145 PCa cells, the “IRE1α and BiP levels” value is “salient induction of IRE1α and BiP levels”. For the same compound, at Sigma1 in SKBR3 cells, the “Sigma1 steady-state protein levels” value is recorded as “Sigma1 steady-state protein levels do not change” and the Sigma1 sub-cellular distribution result is recorded as “Sigma1 distribution is altered”. Also, in experiment [1] (24 hours, control 412±5), the “mean FSC-H (relative cell size)” value was 341±7 and 331±3. The “mean FSC-H (relative cell size)” value in experiment [1] (48 hours (d2)) turned out to be 300±2. The “levels of ubiquitylated proteins” value in experiment [2] is “increased level of ubiquitylated proteins”.
